Data reported in publication PMC9250534, “Synthesis and direct assay of large macrocycle diversities by combinatorial late-stage modification at picomole scale” (Nature Communications, 2022).
“And” between values parts separate entries of the source, which are not always exact repeats. Equal values may be shown once. Read-outs that look alike come from different tables or passages of the source.

Assays:
thrombin = target: T1, thrombin (Homo sapiens, UniProt P00734); assay: Determination of Kis of purified thrombin inhibitors (IC50, Cheng-Prusoff); format: biochemical; conditions: for % thrombin activity: replicates 1-3
T1 construct: consists of two polypeptide chains of 36 (light chain) and 259 amino acid
Description: Purified thrombin inhibitors (10 mM in DMSO) were diluted to 80 μM in 125 μL of Tris buffer (100 mM Tris-Cl, 150 mM NaCl, 10 mM MgCl2, 1 mM CaCl2) containing 0.1% w/v BSA, 0.01% v/v Triton-X100 and […]. The macrocycles were diluted two-fold in Tris buffer containing 0.1% w/v BSA, 0.01% v/v Triton-X100 and 1% DMSO in buffer. The thrombin activity was measured in 96-well plates (Greiner, 655101) and the residual activity calculated as described above in the assay used to measure activities of HPLC-separated fractions of screening hits.
Supplementary Figure 7. Thrombin inhibitors M1 to M5. a, Chemical structures and analytical HPLC chromatograms obtained using a 0-100% MeCN/H2O gradient over 15 minutes. b, For all macrocycles, an 18 -point, two-fold serial dilution was performed in 50 µL volumes. Thrombin was added (50 µL, 2 nM final conc.), followed 10 minutes later by fluorogenic substrate Z -Gly-Gly-Arg-AMC (50 µL, 50 µM final conc.). The increase in fluorescence was measured over 30 minutes.
Residual thrombin activity was determined by dividing the slope of fluorescenc e intensity over time for each well by the slope of control wells without macrocycle. Mean values and SDs are indicated for three independent thrombin inhibition measurements.
(1 picture or pasted object on this page, not shown here)

MDM2 = MDM2 (Homo sapiens, UniProt Q00987); assay: MDM2 binding screen of Libraries 3 and 4: displacement of fluorescent probe F-M8 at 750 nM macrocycle
In short: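 Competition with nutlin-3a was run using the fluorescein conjugate. Library members came from scaffolds reacted 6 h at room temperature with carboxylic acids (20 equiv.), HBTU and DABCO in DMSO. Quenching was overnight in Tris-Cl pH 7.4 buffer with 0.01% Tween20.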

[1] = Panel b, Library 3: 63 scaffolds combinatorially acylated with 15 carboxylic acids at 30 picomole scale, displacement of fluorescent peptide probe, macrocycle 750 nM
[2] = Panel c, Library 4: best nine scaffolds and 15 additional carboxylic acids, displacement of fluorescent probe

Chain of MDM2 (Q00987 whole entry): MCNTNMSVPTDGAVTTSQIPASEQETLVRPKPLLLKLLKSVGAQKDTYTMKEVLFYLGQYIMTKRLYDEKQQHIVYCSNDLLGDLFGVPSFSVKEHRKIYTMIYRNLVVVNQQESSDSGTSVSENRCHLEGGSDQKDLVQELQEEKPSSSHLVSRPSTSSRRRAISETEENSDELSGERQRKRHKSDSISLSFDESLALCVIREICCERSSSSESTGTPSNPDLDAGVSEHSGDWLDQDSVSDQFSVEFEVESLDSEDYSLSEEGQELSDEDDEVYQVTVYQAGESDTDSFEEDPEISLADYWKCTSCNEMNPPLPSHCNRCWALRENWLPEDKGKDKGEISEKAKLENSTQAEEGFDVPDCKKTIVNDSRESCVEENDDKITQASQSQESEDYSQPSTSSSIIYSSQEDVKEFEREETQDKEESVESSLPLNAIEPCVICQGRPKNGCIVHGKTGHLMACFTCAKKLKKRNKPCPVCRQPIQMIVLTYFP

**Q.** How did the Ki (thrombin; read-out: Ki thrombin) turn out when NC(=O)c1ccc(Cl)s1 [5-chlorothiophene-2-carboxamide, reference compound] was run?
**A.** 380000 nM

**Q.** Which results are given for CC(C)[C@H]1NC(=O)CCSSCCNC(=O)[C@H](CNC(=O)c2ccc(Cl)s2)NC(=O)c2cccc(c2)CNC1=O [M1]?
**A.** % thrombin activity (thrombin; Log [Macrocycle] M -8.8): 98.0% and 96.9% and 96.6%; % thrombin activity (thrombin; Log [Macrocycle] M -9.1): 99.2% and 98.3% and 98.9%; % thrombin activity (thrombin; Log [Macrocycle] M -9.4): 99.9% and 99.1% and 103.5%; % thrombin activity (thrombin; Log [Macrocycle] M -9.7): 100.7% and 100.1% and 99.6%; % thrombin activity (thrombin; Log[Macrocycle] M -4.6): -0.0543% and 1.1% and -0.4%; % thrombin activity (thrombin; Log[Macrocycle] M -4.9): 0.156% and 0.7% and 0.8%; % thrombin activity (thrombin; Log[Macrocycle] M -5.2): 0.8% (2×) and 1.8%; % thrombin activity (thrombin; Log[Macrocycle] M -5.5): 1.9% (2×) and 2.1%; % thrombin activity (thrombin; Log[Macrocycle] M -5.8): 3.9% and 4.1% and 4.6%; % thrombin activity (thrombin; Log[Macrocycle] M -6.1): 7.3% and 6.9% and 7.7%; % thrombin activity (thrombin; Log[Macrocycle] M -6.4): 13.7% and 13.0% and 13.6%; % thrombin activity (thrombin; Log[Macrocycle] M -6.7): 22.7% and 21.8% and 22.6%; % thrombin activity (thrombin; Log[Macrocycle] M -7.0): 35.5% and 35.6% and 37.1%; % thrombin activity (thrombin; Log[Macrocycle] M -7.3): 54.7% and 53.1% and 53.5%; % thrombin activity (thrombin; Log[Macrocycle] M -7.6): 68.7% and 65.3% and 67.8%; % thrombin activity (thrombin; Log[Macrocycle] M -7.9): 81.7% and 81.8% and 83.6%; % thrombin activity (thrombin; Log[Macrocycle] M -8.2): 91.6% and 89.3% and 88.1%; % thrombin activity (thrombin; Log[Macrocycle] M -8.5): 94.7% and 92.6% and 94.4%; IC50 (thrombin; thrombin, average of 3 replicates, read-out: IC50 (nM) Average): 58 nM; Ki (thrombin; thrombin, replicate 1, Cheng-Prusoff, read-out: Ki (nM) Replicate 1): 45 nM; IC50 (thrombin; thrombin, replicate 1, read-out: IC50 (nM) Replicate 1): 59 nM; Ki (thrombin; thrombin, replicate 2, Cheng-Prusoff, read-out: Ki (nM) Replicate 2): 43 nM; IC50 (thrombin; thrombin, replicate 2, read-out: IC50 (nM) Replicate 2): 56 nM; Ki (thrombin; thrombin, replicate 3, Cheng-Prusoff, read-out: Ki (nM) Replicate 3): 45 nM; IC50 (thrombin; thrombin, replicate 3, read-out: IC50 (nM) Replicate 3): 58 nM

**Q.** How did the “fraction of fluorescent probe displaced” value (MDM2; [1]) turn out when O=C(NC[C@H]1NC(=O)[C@H]2CCCN(C2)C(=O)CCSSCCNC(=O)[C@@H](Cc2c[nH]c3ccccc23)NC1=O)c1ccc(Cl)cc1 [X-Nip-D-Dap-D-Trp + Acid 25] was run?
**A.** 0.00133

**Q.** O=C1CN(CCNC(=O)c2cccc(Oc3ccccc3)c2)C(=O)[C@H]2CCCN(C2)C(=O)CCSSCCNC(=O)[C@H](Cc2ccc3ccccc3c2)N1 [X-Nip-N-Aeg-2-Nal + Acid 111] was tested. Which “fraction of fluorescent probe displaced” value (MDM2; [1]) did it give?
**A.** 0.00133

**Q.** Which “fraction of fluorescent probe displaced” value (MDM2; [1]) does the source give for O=C(NC[C@H]1NC(=O)[C@@H]2CN(CCO2)C(=O)CCSSCCNC(=O)[C@H](Cc2ccc3ccccc3c2)NC1=O)c1cccc(Oc2ccccc2)c1 [X-Cop-D-Dap-2-Nal + Acid 111] here?
**A.** 0.00133

**Q.** How did the “fraction of fluorescent probe displaced” value (MDM2; [2]) turn out when CC(=Cc1ccccc1)C(=O)NCC1NC(=O)C2CN(CCO2)C(=O)CCSSCCNC(=O)C(Cc2cn(C)c3ccccc23)NC1=O (stereo not drawn) [X-Cop-Dap-Me-Trp + Acid 123] was run?
**A.** -0.037

**Q.** With Cn1cc(C[C@@H]2NC(=O)CN(CCNC(=O)/C=C/c3ccc(OCc4ccccc4)cc3)C(=O)C3(CC3)CNC(=O)CCSSCCNC2=O)c2ccccc21 [X-Amcp-N-Aeg-Me-Trp + Acid 110] as the molecule, how does the “fraction of fluorescent probe displaced” value (MDM2; [1]) read?
**A.** 0.015

**Q.** With CCCOc1ccc(C=CC(=O)NCC2NC(=O)C3CN(CCO3)C(=O)CCSSCCNC(=O)C(Cc3c[nH]c4ccccc34)NC2=O)cc1 (stereo not drawn) [X-Cop-Dap-Trp + Acid 118] as the molecule, how does the “fraction of fluorescent probe displaced” value (MDM2; [2]) read?
**A.** 0.158

**Q.** How did the “fraction of fluorescent probe displaced” value (MDM2; [1]) turn out when O=C1CN(CCNC(=O)C2COc3ccccc3O2)C(=O)[C@H]2CCCN(C2)C(=O)CCSSCCNC(=O)[C@H](Cc2c[nH]c3ccccc23)N1 (some centres unmarked) [X-Nip-N-Aeg-Trp + Acid 115] was run?
**A.** 0.021

**Q.** O=C(NC[C@@H]1NC(=O)[C@H]2CCCN(C2)C(=O)CCSSCCNC(=O)[C@H](Cc2c[nH]c3ccccc23)NC1=O)c1cnc2ccccc2n1 [X-Nip-Dap-Trp + Acid 130] was tested. Which “fraction of fluorescent probe displaced” value (MDM2; [2]) did it give?
**A.** 0.036

**Q.** With CCCOc1ccc(/C=C/C(=O)O)cc1 [Acid 118] as the molecule, how does the “fraction of fluorescent probe displaced” value (MDM2; [2]) read?
**A.** 0.028

**Q.** CN1C(=O)[C@H](CNC(=O)/C=C/c2ccc(OCc3ccccc3)cc2)NC(=O)C2(CC2)CNC(=O)CCSSCCNC(=O)[C@@H]1Cc1c[nH]c2ccccc12 [X-Amcp-Dap-NMe-Trp + Acid 110] was tested. Which “fraction of fluorescent probe displaced” value (MDM2; [1]) did it give?
**A.** 0.015

**Q.** For O=C(NCC1NC(=O)C2CN(CCO2)C(=O)CCSSCCNC(=O)C(Cc2c[nH]c3ccccc23)NC1=O)c1ccc(Cl)cc1 (stereo not drawn) [X-Cop-Dap-Trp + Acid 25], which “fraction of fluorescent probe displaced” value (MDM2; [1]) is on record?
**A.** 0.041

**Q.** Which “fraction of fluorescent probe displaced” value (MDM2; [1]) does the source give for O=C(/C=C/c1ccc(OCc2ccccc2)cc1)NC[C@@H]1NC(=O)[C@H]2CCCN(C2)C(=O)CCSSCCNC(=O)[C@H](Cc2ccc3ccccc3c2)NC1=O [X-Nip-Dap-2-Nal + Acid 110] here?
**A.** 0.021

**Q.** Which “fraction of fluorescent probe displaced” value (MDM2; [1]) does the source give for O=C(/C=C/c1ccc(Cl)cc1)NC[C@H]1NC(=O)C2(CC2)CNC(=O)CCSSCCNC(=O)[C@H](Cc2ccc3ccccc3c2)NC1=O [X-Amcp-D-Dap-2-Nal + Acid 108] here?
**A.** 0.008

**Q.** How did the “fraction of fluorescent probe displaced” value (MDM2; [2]) turn out when CCOc1ccc(/C=C/C(=O)NC[C@@H]2NC(=O)[C@H]3CCCN(C3)C(=O)CCSSCCNC(=O)[C@H](Cc3c[nH]c4cc(Cl)ccc34)NC2=O)cc1 [X-Nip-Dap-Cl-Trp + Acid 117] was run?
**A.** 0.207

**Q.** With O=C(/C=C/c1ccc2ccccc2c1)NC[C@@H]1NC(=O)[C@H]2CCCN(C2)C(=O)CCSSCCNC(=O)[C@H](Cc2c[nH]c3ccccc23)NC1=O [X-Nip-Dap-Trp + Acid 112] as the molecule, how does the “fraction of fluorescent probe displaced” value (MDM2; [1]) read?
**A.** 0.574

**Q.** For O=C1CCSSCCNC(=O)[C@H](Cc2cccc3ccccc23)NC(=O)[C@H](CNC(=O)C2COc3ccccc3O2)NC(=O)C2(CC2)CN1 (some centres unmarked) [X-Amcp-Dap-1-NaI + Acid 115], which “fraction of fluorescent probe displaced” value (MDM2; [1]) is on record?
**A.** 0.00133

**Q.** How did the “fraction of fluorescent probe displaced” value (MDM2; [1]) turn out when O=C(/C=C/c1ccncc1)NC[C@H]1NC(=O)[C@H]2CCCN(C2)C(=O)CCSSCCNC(=O)[C@H](Cc2c[nH]c3cc(Cl)ccc23)NC1=O [X-Nip-D-Dap-Cl-Trp + Acid 106] was run?
**A.** 0.018

**Q.** O=C(/C=C/c1ccc(OCc2ccccc2)cc1)NCCN1CC(=O)N[C@@H](Cc2ccc3ccccc3c2)C(=O)NCCSSCCC(=O)NCC2(CC2)C1=O [X-Amcp-N-Aeg-2-Nal + Acid 110] was tested. Which “fraction of fluorescent probe displaced” value (MDM2; [1]) did it give?
**A.** 0.021
